Results from ChEMBL document CHEMBL1128095, “3,4-diarylthiophenes are selective COX-2 inhibitors” (Bioorg Med Chem Lett, 1995).

Assays:
[1] = target: Prostaglandin G/H synthase 1 (Homo sapiens, UniProt P23219); experiment: Inhibitory activity against human recombinant Prostaglandin G/H synthase 1
[2] = target: T1, Prostaglandin G/H synthase 2 (Homo sapiens, UniProt P35354)
T1 sequence (P35354 whole entry): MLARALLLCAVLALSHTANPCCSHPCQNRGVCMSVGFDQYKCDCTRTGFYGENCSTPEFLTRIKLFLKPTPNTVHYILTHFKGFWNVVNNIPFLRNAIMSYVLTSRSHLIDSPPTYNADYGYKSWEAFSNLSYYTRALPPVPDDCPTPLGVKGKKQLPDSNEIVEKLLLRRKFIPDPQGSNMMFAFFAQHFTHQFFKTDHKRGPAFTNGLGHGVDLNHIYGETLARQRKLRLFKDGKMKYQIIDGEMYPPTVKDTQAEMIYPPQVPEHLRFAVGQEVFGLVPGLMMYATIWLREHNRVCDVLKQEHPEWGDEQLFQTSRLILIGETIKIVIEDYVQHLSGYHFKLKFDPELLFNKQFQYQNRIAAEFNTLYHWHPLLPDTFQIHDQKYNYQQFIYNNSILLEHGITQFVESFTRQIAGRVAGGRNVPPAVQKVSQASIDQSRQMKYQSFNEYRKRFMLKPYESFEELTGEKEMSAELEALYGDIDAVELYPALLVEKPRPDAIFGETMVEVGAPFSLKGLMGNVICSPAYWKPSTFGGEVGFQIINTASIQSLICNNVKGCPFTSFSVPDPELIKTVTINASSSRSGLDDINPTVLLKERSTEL
Description: Inhibitory activity against human recombinant Prostaglandin G/H synthase 2

[3] = tested on: Rattus norvegicus; experiment: Compound was tested for its ability to inhibit carrageenan rat foot edema at 10 mg/kg dose; assay type: functional

Chain of Prostaglandin G/H synthase 1 (P23219 whole entry): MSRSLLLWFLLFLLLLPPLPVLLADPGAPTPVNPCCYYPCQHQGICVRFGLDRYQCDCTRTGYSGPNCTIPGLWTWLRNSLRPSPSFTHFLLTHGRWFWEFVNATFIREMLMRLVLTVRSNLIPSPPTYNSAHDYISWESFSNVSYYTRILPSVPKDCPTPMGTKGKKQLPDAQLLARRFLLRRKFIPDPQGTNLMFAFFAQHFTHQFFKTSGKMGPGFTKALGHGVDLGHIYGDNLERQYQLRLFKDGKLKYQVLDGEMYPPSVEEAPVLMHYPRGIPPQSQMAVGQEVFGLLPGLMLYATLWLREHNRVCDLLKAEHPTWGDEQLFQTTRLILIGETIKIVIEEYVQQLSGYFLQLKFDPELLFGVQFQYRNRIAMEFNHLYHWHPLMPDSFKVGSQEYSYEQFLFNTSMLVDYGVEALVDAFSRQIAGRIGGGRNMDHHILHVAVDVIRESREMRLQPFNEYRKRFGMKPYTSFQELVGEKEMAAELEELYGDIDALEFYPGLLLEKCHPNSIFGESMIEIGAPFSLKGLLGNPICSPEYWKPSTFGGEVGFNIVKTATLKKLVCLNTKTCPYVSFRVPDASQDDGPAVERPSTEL

COc1ccc(-c2cscc2-c2ccc(S(N)(=O)=O)cc2)cc1F
IC50 [1]: 10 µM
IC50 [2]: 9 nM

CS(=O)(=O)c1ccc(-c2c(Br)sc(Br)c2-c2ccc(F)cc2)cc1
IC50 [1]: > 1000 µM
IC50 [2]: 700 nM

COc1ccc(-c2cscc2-c2ccc(S(C)(=O)=O)cc2)cc1F
IC50 [1]: > 100 µM
IC50 [2]: 30 nM

CS(=O)(=O)c1ccc(-c2cscc2-c2ccc(F)cc2)cc1
inhibition in vivo at 10 mg/kg [3]: 33%
IC50 [1]: > 1000 µM
IC50 [2]: 80 nM

CS(=O)(=O)c1ccc(-c2csc(Br)c2-c2ccc(F)cc2)cc1
inhibition in vivo at 10 mg/kg [3]: 30%
IC50 [1]: 5.2 µM

COc1ccc(-c2cscc2-c2ccc(S(C)(=O)=O)cc2)cc1
IC50 [1]: 0.9 µM
IC50 [2]: 50 nM

CS(=O)(=O)c1ccc(-c2c(-c3ccc(F)cc3)csc2Br)cc1
IC50 [1]: > 100 µM
IC50 [2]: > 100000 nM

CS(=O)(=O)c1ccc(-c2cc(Br)sc2-c2ccc(F)cc2)cc1 [DUP-697]
inhibition in vivo at 10 mg/kg [3]: 57%

NS(=O)(=O)c1ccc(-c2cscc2-c2ccc(F)cc2)cc1
inhibition in vivo at 10 mg/kg [3]: 46.5%
IC50 [1]: 1.8 µM
IC50 [2]: 8 nM
